# Measurements: US12378224B2 (Dong-A Socio Holdings Co., Ltd., priority 2016, dated 2025)
# Target: human MER (528-end) (Homo sapiens (Human), UniProt Q12866)
# Test: HTRF Kinase Activity Biochemical Assay (KinEASE-TK)
# Details: 10 uM ATP
# Description: For the SAR (structure-activity relationship) and compound screening, HTRF (Homogeneous Time Resolved Fluorescence) kinase activity assay was employed for all MER, AXL and TYRO3 kinases using Cisbio HTRF® KinEASE™-TK kit (Cisbio, USA). The kit includes biotin-labeled TK substrate, streptavidin-XL665, Eu3+-cryptate-labeled TK antibody and HTRF® Detection buffer. There are two main steps in the kinase assay: kinase reaction and detection of phosphorylated substrate. The reaction was carried out in white low volume 384-well plate (Corning, USA) with 25 nL compound in dimethyl sulfoxide in each well. […] Then the reaction was stopped after 1 hour incubation at room temperature by adding 5 uL of HTRF® Detection buffer which also contains 0.375 nM Eu3+-cryptate-labeled TK antibody and 0.062 uM streptavidin-XL665(SA-XL665) to allow for detection of the phosphorylated peptide product. After 1 h incubation at room temperature, the fluorescence intensity was measured with Envision™ plate reader (PerkinElmer, USA). Upon excitation at 340 nm by UV, the energy from Eu3+ donor of the antibody is transferred to the FRET acceptor XL665, and […] emits light at 665 nm. The level of kinase activity was quantified by the HTRF ratio that calculated from the intensity of emission at 665 nm and emission at 620 nm (fluorescence intensity @ 665 nm/fluorescence intensity @ 620 nm×10,000). The recombinant protein of human MER (528-end) was purchased from Carnabio, Japan. The recombinant human AXL (473-end) and TYRO3 (455-end) were purchased from SignalChem, Canada.
# human MER (528-end), sequence (Q12866 528-999 limits assumed): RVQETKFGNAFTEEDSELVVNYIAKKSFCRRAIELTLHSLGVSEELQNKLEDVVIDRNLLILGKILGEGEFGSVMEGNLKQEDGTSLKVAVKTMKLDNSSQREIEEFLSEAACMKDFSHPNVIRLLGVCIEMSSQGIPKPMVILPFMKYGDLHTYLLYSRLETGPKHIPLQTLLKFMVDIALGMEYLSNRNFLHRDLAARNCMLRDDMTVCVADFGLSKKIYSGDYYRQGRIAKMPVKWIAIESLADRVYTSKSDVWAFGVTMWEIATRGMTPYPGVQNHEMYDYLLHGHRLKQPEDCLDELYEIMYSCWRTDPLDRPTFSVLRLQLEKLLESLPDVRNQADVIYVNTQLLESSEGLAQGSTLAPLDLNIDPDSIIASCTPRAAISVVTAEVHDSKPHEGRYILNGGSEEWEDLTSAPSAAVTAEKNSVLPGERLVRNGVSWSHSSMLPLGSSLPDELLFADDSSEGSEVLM
row,IC50 [nM],SMILES
1,> 1000,"Cn1cc(-c2cnc(N)c(C(=O)N[C@@H]3CCN(C(=S)Nc4ccc(Cl)c(Cl)c4)C3)c2)cn1 [Example 44, (R)-2-amino-N-(1-((3,4-dichlorophenyl)carbamothioyl)pyrrolidin-3-yl)-5-(1-methyl-1H-pyrazol-4-yl)nicotinamide]"
2,> 1000,"COc1ccc(NC(=S)N2CC[C@@H](NC(=O)c3cc(-c4cnn(C)c4)cnc3N)C2)cc1 [Example 45, (R)-2-amino-N-(1-((4-methoxyphenyl)carbamothioyl)pyrrolidin-3-yl)-5-(1-methyl-1H-pyrazol-4-yl)nicotinamide]"
3,> 1000,"Cn1cc(-c2cnc(N)c(C(=O)N[C@@H]3CCN(C(=S)Nc4ccc(Br)cc4)C3)c2)cn1 [Example 46, (R)-2-amino-N-(1-((4-bromophenyl)carbamothioyl)pyrrolidin-3-yl)-5-(1-methyl-1H-pyrazol-4-yl)nicotinamide]"
4,> 1000,"Cn1cc(-c2cnc(N)c(C(=O)N[C@@H]3CCN(C(=S)Nc4ccc([N+](=O)[O-])cc4)C3)c2)cn1 [Example 47, (R)-2-amino-5-(1-methyl-1H-pyrazol-4-yl)-N-(1-((4-nitrophenyl)carbamothioyl)pyrrolidin-3-yl)nicotinamide]"
5,> 1000,"CN(C)c1ccc(NC(=S)N2CC[C@@H](NC(=O)c3cc(-c4cnn(C)c4)cnc3N)C2)cc1 [Example 48, (R)-2-amino-N-(1-((4-(dimethylamino)phenyl)carbamothioyl)pyrrolidin-3-yl)-5-(1-methyl-1H-pyrazol-4-yl)nicotinamide]"
6,100 to 1000,"Cn1cc(-c2cnc(N)c(C(=O)N[C@@H]3CCN(C(=S)Nc4cc(Cl)cc(Cl)c4)C3)c2)cn1 [Example 50, (R)-2-amino-N-(1-((3,5-dichlorophenyl)carbamothioyl)pyrrolidin-3-yl)-5-(1-methyl-1H-pyrazol-4-yl)nicotinamide]"
7,100 to 1000,"Cn1cc(-c2cnc(N)c(C(=O)N[C@@H]3CCN(C(=S)Nc4cccc(-c5ccccc5)c4)C3)c2)cn1 [Example 51, (R)—N-(1-([1,1′-biphenyl]-3-ylcarbamothioyl)pyrrolidin-3-yl)-2-amino-5-(1-methyl-1H-pyrazol-4-yl)nicotinamide]"
8,> 1000,"Cn1cc(-c2cnc(N)c(C(=O)N[C@@H]3CCN(C(=S)Nc4cccc(Br)c4)C3)c2)cn1 [Example 52, (R)-2-amino-N-(1-((3-bromophenyl)carbamothioyl)pyrrolidin-3-yl)-5-(1-methyl-1H-pyrazol-4-yl)nicotinamide]"
9,> 1000,"Cn1cc(-c2cnc(N)c(C(=O)N[C@@H]3CCN(C(=O)Oc4cccc(C(=O)N5CCCCC5)c4)C3)c2)cn1 [Example 55, 3-(piperidine-1-carbonyl)phenyl (R)-3-(2-amino-5-(1-methyl-1H-pyrazol-4-yl)nicotinamido)pyrrolidine-1-carboxylate]"
10,100 to 1000,"Cn1cc(-c2cnc(N)c(C(=O)N[C@@H]3CCN(C(=O)Oc4ccc5c(c4)CCCC5)C3)c2)cn1 [Example 56, 5,6,7,8-tetrahydronaphthalen-2-yl (R)-3-(2-amino-5-(1-methyl-1H-pyrazol-4-yl)nicotinamido)pyrrolidine-1-carboxylate]"
11,> 1000,"Cc1cc(OC(=O)N2CC[C@@H](NC(=O)c3cc(-c4cnn(C)c4)cnc3N)C2)cc(C(C)C)c1 [Example 57, 3-isopropyl-5-methylphenyl (R)-3-(2-amino-5-(1-methyl-1H-pyrazol-4-yl)nicotinamido)pyrrolidine-1-carboxylate]"
12,> 1000,"Cn1cc(-c2cnc(N)c(C(=O)N[C@@H]3CCN(C(=O)Oc4ccccc4OCc4ccccc4)C3)c2)cn1 [Example 58, 2-(benzyloxy)phenyl (R)-3-(2-amino-5-(1-methyl-1H-pyrazol-4-yl)nicotinamido)pyrrolidine-1-carboxylate]"
13,> 1000,"Cn1cc(-c2cnc(N)c(C(=O)N[C@@H]3CCN(C(=O)Oc4cccc(OCc5ccccc5)c4)C3)c2)cn1 [Example 59, 3-(benzyloxy)phenyl (R)-3-(2-amino-5-(1-methyl-1H-pyrazol-4-yl)nicotinamido)pyrrolidine-1-carboxylate]"
14,> 1000,"Cn1cc(-c2cnc(N)c(C(=O)N[C@@H]3CCN(C(=O)Oc4cccc(Cl)c4Cl)C3)c2)cn1 [Example 60, 2,3-dichlorophenyl (R)-3-(2-amino-5-(1-methyl-1H-pyrazol-4-yl)nicotinamido)pyrrolidine-1-carboxylate]"
15,> 1000,"Cn1cc(-c2cnc(N)c(C(=O)N[C@@H]3CCN(C(=O)Oc4cc(Cl)ccc4Cl)C3)c2)cn1 [Example 61, 2,5-dichlorophenyl (R)-3-(2-amino-5-(1-methyl-1H-pyrazol-4-yl)nicotinamido)pyrrolidine-1-carboxylate]"
16,> 1000,"Cn1cc(-c2cnc(N)c(C(=O)N[C@@H]3CCN(C(=O)Oc4ccccc4C#N)C3)c2)cn1 [Example 62, 2-cyanophenyl (R)-3-(2-amino-5-(1-methyl-1H-pyrazol-4-yl)nicotinamido)pyrrolidine-1-carboxylate]"
17,> 1000,"COc1cc(Br)ccc1OC(=O)N1CC[C@@H](NC(=O)c2cc(-c3cnn(C)c3)cnc2N)C1 [Example 63, 4-bromo-2-methoxyphenyl (R)-3-(2-amino-5-(1-methyl-1H-pyrazol-4-yl)nicotinamido)pyrrolidine-1-carboxylate]"
18,> 1000,"COC(=O)c1cccc(OC(=O)N2CC[C@@H](NC(=O)c3cc(-c4cnn(C)c4)cnc3N)C2)c1 [Example 64, 3-(methoxycarbonyl)phenyl (R)-3-(2-amino-5-(1-methyl-1H-pyrazol-4-yl)nicotinamido)pyrrolidine-1-carboxylate]"
19,> 1000,"COC(=O)c1ccc(OC)cc1OC(=O)N1CC[C@@H](NC(=O)c2cc(-c3cnn(C)c3)cnc2N)C1 [Example 65, 5-methoxy-2-(methoxycarbonyl)phenyl (R)-3-(2-amino-5-(1-methyl-1H-pyrazol-4-yl)nicotinamido)pyrrolidine-1-carboxylate]"
20,> 1000,"Cn1cc(-c2cnc(N)c(C(=O)N[C@@H]3CCN(C(=O)OC4CCCCC4)C3)c2)cn1 [Example 66, cyclohexyl (R)-3-(2-amino-5-(1-methyl-1H-pyrazol-4-yl)nicotinamido)pyrrolidine-1-carboxylate]"
21,100 to 1000,"Cn1cc(-c2cnc(N)c(C(=O)N[C@@H]3CCN(C(=O)Oc4ccc5cc(Br)ccc5c4)C3)c2)cn1 [Example 67, 6-bromonaphthalen-2-yl (R)-3-(2-amino-5-(1-methyl-1H-pyrazol-4-yl)nicotinamido)pyrrolidine-1-carboxylate]"
22,> 1000,"Cn1cc(-c2cnc(N)c(C(=O)N[C@@H]3CCN(C(=O)Oc4cccc5ccccc45)C3)c2)cn1 [Example 68, naphthalen-1-yl (R)-3-(2-amino-5-(1-methyl-1H-pyrazol-4-yl)nicotinamido)pyrrolidine-1-carboxylate]"
23,100 to 1000,"Cn1cc(-c2cnc(N)c(C(=O)N[C@@H]3CCN(C(=O)Oc4ccc5ccccc5c4N)C3)c2)cn1 [Example 69, 1-aminonaphthalen-2-yl (R)-3-(2-amino-5-(1-methyl-1H-pyrazol-4-yl)nicotinamido)pyrrolidine-1-carboxylate]"
24,> 1000,"Cn1cc(-c2cnc(N)c(C(=O)N[C@@H]3CCN(C(=O)Oc4ccccc4CO)C3)c2)cn1 [Example 71, 2-(hydroxymethyl)phenyl (R)-3-(2-amino-5-(1-methyl-1H-pyrazol-4-yl)nicotinamido)pyrrolidine-1-carboxylate]"
25,> 1000,"Cn1cc(-c2cnc(N)c(C(=O)N[C@@H]3CCN(C(=O)Oc4ccc5ncccc5c4)C3)c2)cn1 [Example 72, quinolin-6-yl (R)-3-(2-amino-5-(1-methyl-1H-pyrazol-4-yl)nicotinamido)pyrrolidine-1-carboxylate]"
26,> 1000,"Cn1cc(-c2cnc(N)c(C(=O)N[C@@H]3CCN(C(=O)Oc4cccc5cccnc45)C3)c2)cn1 [Example 73, quinolin-8-yl (R)-3-(2-amino-5-(1-methyl-1H-pyrazol-4-yl)nicotinamido)pyrrolidine-1-carboxylate]"
27,> 1000,"CCNc1cc(OC(=O)N2CC[C@@H](NC(=O)c3cc(-c4cnn(C)c4)cnc3N)C2)ccc1C [Example 74, 3-(ethylamino)-4-methylphenyl (R)-3-(2-amino-5-(1-methyl-1H-pyrazol-4-yl)nicotinamido)pyrrolidine-1-carboxylate]"
28,> 1000,"Cn1cc(-c2cnc(N)c(C(=O)N[C@@H]3CCN(C(=O)Oc4ccc(Cl)cc4C4CCCCC4)C3)c2)cn1 [Example 75, 4-chloro-2-cyclohexylphenyl (R)-3-(2-amino-5-(1-methyl-1H-pyrazol-4-yl)nicotinamido)pyrrolidine-1-carboxylate]"
29,> 1000,"CC(=O)Nc1cccc(OC(=O)N2CC[C@@H](NC(=O)c3cc(-c4cnn(C)c4)cnc3N)C2)c1 [Example 76, 3-acetamidophenyl (R)-3-(2-amino-5-(1-methyl-1H-pyrazol-4-yl)nicotinamido)pyrrolidine-1-carboxylate]"

row,SMILES,IC50 [nM]
1,"Cn1cc(-c2cnc(N)c(C(=O)N[C@@H]3CCN(C(=O)Oc4ccccc4)C3)c2)cn1 [Example 54, phenyl (R)-3-(2-amino-5-(1-methyl-1H-pyrazol-4-yl)nicotinamido)pyrrolidine-1-carboxylate]",> 1000
